Assay: Human HepG2 cell viability assay in 384 well format
Format: toxicity, cell-based
Parameters: dose 125 nL, time 70.5 hour; cytotoxicity at 70.5 h: concentration not given beside the values
Details: HepG2 cells, read-out: Inhibition

| Structure (SMILES) | cytotoxicity at 70.5 h |
| --- | --- |
| CCc1ccc2occ(CC(=O)N3CCC4(CCCN(C)C4=O)C3)c2c1 (centres undefined) | -9.34% |
| Clc1cccnc1N1CCC(C2CCN(Cc3cccnc3)CC2)C1 (centres undefined) | 25.7% |
| Cc1nn(C)c2nc(N(CCN(C)C)C3CCCC3)sc12 | 2.63% |
| O=C1CC(NCc2cccc(O)c2)CN1CCc1cccc(Cl)c1 (centres undefined) | 14.8% |
| O=C(CCc1ccco1)N1CCC(Oc2ccccc2)(C(=O)O)CC1 | 2.91% |
| CCC(Nc1cccc(OC)c1)C(=O)NCc1nc(C)cc(=O)[nH]1 (centres undefined) | -5.76% |
| CCN(CC)Cc1cc(C(=O)N2CCC3(CCN(C)CC3)C2)c(C)o1 | -14.5% |
| Cc1[nH]ccc1C(=O)N[C@H]1CN(CCO)C[C@@H]1C1CC1 | -6.42% |
| CCc1cccc(OC2CN(C(=O)[C@@H](N)CCSC)C2)c1 | -1.91% |
| CC(C)c1cc(=O)[nH]c(-c2ccccc2CN2CCCC2C)n1 (centres undefined) | -19.9% |
| Cc1ncc(CN2CCC(n3cc(-c4ccc(F)cc4)nn3)CC2)cn1 | -2.17% |
| OCCc1ccccc1-n1ccnc1-c1cn(C2CCNCC2)nn1 | 27.2% |
| Cc1nc(N)cc(N2CCCC(COc3cccc(F)c3)C2)n1 (centres undefined) | -16.1% |
| Cn1ccc2c(-c3ccc(NCCO)nn3)ccnc21 | -9.8% |
| CCOc1ccc(CC(=O)N2C[C@H](C3CC3)[C@@H](N)C2)cc1 | 37.4% |
| O=C(CCn1cc(Cl)cn1)N1CCC2(CC1)[C@H](O)C[C@@H]2OCCO | -1.08% |
| CCC(CC)Cn1ncc(N2CCOCC2)cc1=O | -1.42% |
| O=C(C1CC1)N1CCC(C(=O)N2CCC(c3ccc(F)cc3)C2)CC1 (centres undefined) | 8.64% |
| O=C(NCc1ccc2c(c1)CCCO2)c1ccc(C2CCNC2)cc1 (centres undefined) | -18% |
| Cc1ccc(O)c(C(=O)N2CCC3(CCCNC3)C2)c1 (centres undefined) | -7.79% |
| Cn1cccc1-c1cc(C(=O)N2CCCC2c2ccc(C(N)=O)s2)[nH]n1 (centres undefined) | -2.9% |
| Cc1cc2ccccc2n1CCC(=O)NCc1ncc[nH]1 | -1.07% |

| Structure (SMILES) | cytotoxicity at 70.5 h |
| --- | --- |
| CN(C)CC1(O)CCN(S(=O)(=O)c2ccc(F)cc2)C1 (centres undefined) | 30.9% |
| CN(C)CC1(O)CCN(S(=O)(=O)c2ccc(F)c(F)c2)C1 (centres undefined) | 32.6% |
| CCC(=O)NCCc1cc(N2CCN(C(C)=O)CC2)nc(C2CC2)n1 | -1.36% |
| CNc1cc(CCNC(=O)c2cccnc2)nc(-c2ccncc2)n1 | -7.53% |
| Cc1cc(C2CCCN(C(=O)c3cnn(C)c3)C2)ccn1 (centres undefined) | -8.77% |
| CNC(=O)c1ccc(C2CN(C(=O)c3cncs3)CCO2)nc1 (centres undefined) | -3.2% |
| Cc1cc(C2CCCN(C(=O)c3cnccn3)C2)ccn1 (centres undefined) | -0.249% |
| Cc1nc(C(=O)N2CCCC(c3cccc(-n4ccnc4)n3)C2)co1 (centres undefined) | 4.94% |
| CCOCC(=O)N1C[C@@H](O)[C@H](N(C)Cc2ccc(OC)cc2)C1 | -13.7% |
| O=C(Cn1c(=O)n(Cc2ccco2)c2ncccc21)Nc1ccccn1 | -4.41% |
| Cn1ccc(C(=O)N2CCCC(Cc3cccc4ncccc34)C2)n1 (centres undefined) | 35.2% |
| CN1CC[C@H](c2ccccc2)[C@@H]2[C@H]1CCCCN2C(=O)c1cnccn1 | -8.44% |
| CCOCCCNc1nc(O)cc(C2CC(=O)N(C)C2)n1 (centres undefined) | 24.8% |
| Cc1nc(C2CCN(C(=O)c3cccnc3)CC2)c2sccn12 | 0.00673% |
| Fc1ccc(CN2CCC(c3n[nH]c4nccnc34)CC2)cc1F | 7.75% |
| O=C1NCC2(CCCN(Cc3ccccc3F)C2)Oc2ccccc21 (centres undefined) | -14.5% |
| Cc1csc2c(=O)n3c(nc12)CCN(C(=O)c1cccnc1)CC3 | -19.9% |
| NC(=O)C1CCCN(Cc2c(-c3ccco3)[nH]c3ncccc23)C1 (centres undefined) | -10.6% |
| CS(=O)(=O)N1CCC(C(=O)NC(Cc2ccsc2)c2nccs2)CC1 (centres undefined) | -20.6% |
| Cc1c(C2CCCN(C(=O)C3CC3)C2)n2c(nc1=O)CCC2 (centres undefined) | -3.86% |
| Cc1ccc(S(=O)(=O)N2CCc3nc(C4CCNCC4)ncc3C2)cc1 | -8.7% |
| CCCC(=O)N1CCC(O)(Cn2c(CC)nc3ccccc3c2=O)CC1 | -16.7% |
